Measurements taken from patent US10000473B2, “Indazole derivatives useful as glucagon receptor antagonists” (Janssen Pharmaceutica NV, priority 2016, dated 2018).

These molecules were tested against T1, human GCGR (Homo sapiens, UniProt P47871) (assay: Cellular functional assay, cAMP readout (glucagon-stimulated cAMP, LANCE TR-FRET)). Details: HEK293 cells stably expressing full-length human GCGR; glucagon 100 pM; IC50 converted to Ki; read-out: Inhibition of cAMP Ki.
T1 construct: expressed in transfected cells; host or cells: HEK293 (hGluc-1HEK), pcDNA3.1, G418 selection
Assay type: cell-based

T1 sequence (P47871 26-477): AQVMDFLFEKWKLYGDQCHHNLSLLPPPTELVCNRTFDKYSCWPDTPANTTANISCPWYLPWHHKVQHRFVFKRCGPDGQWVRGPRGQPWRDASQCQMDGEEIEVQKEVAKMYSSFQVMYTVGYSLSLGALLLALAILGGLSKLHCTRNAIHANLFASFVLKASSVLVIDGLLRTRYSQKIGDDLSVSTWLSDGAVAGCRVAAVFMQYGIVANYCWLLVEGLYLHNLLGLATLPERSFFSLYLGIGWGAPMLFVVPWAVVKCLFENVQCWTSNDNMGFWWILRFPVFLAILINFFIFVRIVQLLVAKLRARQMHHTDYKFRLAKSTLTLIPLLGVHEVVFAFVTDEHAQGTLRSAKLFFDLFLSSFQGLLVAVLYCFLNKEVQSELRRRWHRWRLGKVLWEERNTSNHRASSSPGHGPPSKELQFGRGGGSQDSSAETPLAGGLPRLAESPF

| SMILES | Ki |
| --- | --- |
| Cc1cc(C(F)(F)F)ccc1-c1ccc2nn(C(CCC(F)(F)F)c3ccc(C(=O)NCCC(=O)O)cc3)cc2c1 (stereo not drawn) [Compound #50, 3-[[4-[4,4,4-Trifluoro-1-[5-[2-methyl-4-(trifluoromethyl)phenyl]indazol-2-yl]butyl]benzoyl]amino]propanoic acid] | 0.047 µM |
| O=C(O)CCNC(=O)c1ccc(C(CCC(F)(F)F)n2cc3cc(-c4cc5ccccc5s4)ccc3n2)cc1 (stereo not drawn) [Compound #122, 3-[[4-[1-[5-(Benzothiophen-2-yl)indazol-2-yl]-4,4,4-trifluorobutyl]benzoyl]amino]propanoic acid] | 0.125 µM |
| Cc1cc(C(F)(F)F)ccc1-c1cc2cn(C(CC(C)C)c3ccc(C(=O)NCCC(=O)O)cc3)nc2cc1C (stereo not drawn) [Compound #54, 3-[[4-[3-Methyl-1-[6-methyl-5-[2-methyl-4-(trifluoromethyl)phenyl]indazol-2-yl]butyl]benzoyl]amino]propanoic acid] | 0.019 µM |
| O=C(O)CCNC(=O)c1ccc(C(CC2CCCCC2)n2cc3cc(-c4ccc(C(F)(F)F)cc4)ccc3n2)cn1 (stereo not drawn) [compound 240] | 0.2 µM |
| Cc1cc(Cl)ccc1-c1ccc2nn(C(CCC(F)(F)F)c3ccc(C(=O)NCCC(=O)O)cc3)cc2c1 (stereo not drawn) [Compound #8, 3-[[4-[1-[5-(4-Chloro-2-methyl-phenyl)indazol-2-yl]-4,4,4-trifluorobutyl]benzoyl]amino]propanoic acid] | 0.059 µM |
| Cc1c(-c2ccc(C(F)(F)F)cc2Cl)ccc2nn(C(CC(C)C)c3ccc(C(=O)NCCC(=O)O)nc3)cc12 (stereo not drawn) [Compound #154, 3-(5-(1-(5-(2-Chloro-4-(trifluoromethyl)phenyl)-4-methyl-2H-indazol-2-yl)-3-methylbutyl)picolinamido)propanoic acid] | 0.013 µM |
| O=C(O)CCNC(=O)c1ccc(C(C2CCCCC2)n2cc3cc(-c4ccc(C(F)(F)F)cc4)ccc3n2)cc1 (stereo not drawn) [compound 136] | 0.135 µM |
| COc1c(-c2ccc(Cl)cc2C)ccc2c1cnn2C(CC(C)C)c1ccc(C(=O)NCCC(=O)O)cc1 (stereo not drawn) [Compound #99, 3-(4-(1-(5-(4-Chloro-2-methylphenyl)-4-methoxy-1H-indazol-1-yl)-3-methylbutyl)benzamido)propanoic acid] | 0.145 µM |
| O=C(O)CCNC(=O)c1ccc(C(CC2CCCC2)n2cc3cc(-c4ccc(C(F)(F)F)cc4)ccc3n2)cc1 (stereo not drawn) [compound 254] | 0.09 µM |
| CC(C)CC(c1ccc(C(=O)NCCC(=O)O)nc1)n1ncc2cc(-c3ccc(C(F)(F)F)cc3Cl)ccc21 (stereo not drawn) [Compound #43, 3-(5-(1-(5-(2-Chloro-4-(trifluoromethyl)phenyl)-1H-indazol-1-yl)-3-methylbutyl)picolinamido)propanoic acid] | 0.175 µM |
| Cc1cc(Cl)ccc1-c1ccc2c(cnn2C(CCC(F)(F)F)c2ccc(C(=O)NCCC(=O)O)cc2)c1 (stereo not drawn) [Compound #40, 3-[[4-[1-[5-(4-Chloro-2-methyl-phenyl)indazol-1-yl]-4,4,4-trifluorobutyl]benzoyl]amino]propanoic acid] | 0.49 µM |
| CCCCCCC(c1ccc(C(=O)NCCC(=O)O)cc1)n1ncc2cc(-c3ccc(Cl)cc3C)ccc21 (stereo not drawn) [compound 245] | 0.21 µM |
| Cc1cc(Cl)ccc1-c1ccc2nn(C(CC3CCCCC3)c3ccc(C(=O)NCCC(=O)O)nc3)cc2c1 (stereo not drawn) [compound 249] | 0.042 µM |
| CC(C)CC(c1ccc(C(=O)NCCC(=O)O)cc1)n1ncc2cc(-c3cc4ccc(F)cc4s3)ccc21 (stereo not drawn) [compound 126] | 0.28 µM |
| CCCCCC(c1ccc(C(=O)NCCC(=O)O)cc1)n1ncc2cc(-c3ccc(C(C)(C)C)cc3)ccc21 (stereo not drawn) [compound 88] | 0.255 µM |
| CCOc1c(-c2ccc(C)cc2C)ccc2nn(C(CC(C)C)c3ccc(C(=O)NCCC(=O)O)nc3)cc12 (stereo not drawn) [compound 182] | 0.07 µM |
| O=C(O)CCNC(=O)c1ccc(C(CCC(F)(F)F)n2ncc3cc(-c4ccc(C(F)(F)F)c(Cl)c4)ccc32)cc1 (stereo not drawn) [Compound #111, 3-[[4-[1-[5-[3-Chloro-4-(trifluoromethyl)phenyl]indazol-1-yl]-4,4,4-trifluorobutyl]benzoyl]amino]propanoic acid] | > 1.3 µM |
| CC(C)CC(c1ccc(C(=O)NCCC(=O)O)cc1)n1cc2cc(-c3cc4cc(F)ccc4s3)ccc2n1 (stereo not drawn) [compound 129] | 0.088 µM |
| CC(C)(C)CC(c1ccc(C(=O)NCCC(=O)O)nc1)n1cc2cc(-c3ccc(C(F)(F)F)cc3)ccc2n1 (stereo not drawn) [compound 212] | 0.09 µM |
| Cc1cc(C(F)(F)F)ccc1-c1ccc2c(cnn2C(CC(C)C)c2ccc(C(=O)NCCC(=O)O)nc2)c1C (stereo not drawn) [Compound #258, 3-(5-(3-Methyl-1-(4-methyl-5-(2-methyl-4-(trifluoromethyl)phenyl)-1H-indazol-1-yl)butyl)picolinamido)propanoic acid] | 0.065 µM |
| COc1c(-c2ccc(C(F)(F)F)cc2C)ccc2nn(C(CC(C)C)c3ccc(C(=O)NCCC(=O)O)cc3)cc12 (stereo not drawn) [Compound #233, 3-(4-(1-(4-Methoxy-5-(2-methyl-4-(trifluoromethyl)phenyl)-2H-indazol-2-yl)-3-methylbutyl)benz-amido)propanoic acid] | 0.024 µM |

| SMILES | Ki |
| --- | --- |
| CCCCCCC(c1ccc(C(=O)NCCC(=O)O)cc1)n1cc2cc(-c3ccc(C(C)(C)C)cc3)ccc2n1 (stereo not drawn) [compound 86] | 0.136 µM |
| Cc1c(-c2ccc(C(F)(F)F)cc2Cl)ccc2c1cnn2C(CC(C)C)c1ccc(C(=O)NCCC(=O)O)nc1 (stereo not drawn) [Compound #198, 3-(5-(1-(5-(2-Chloro-4-(trifluoromethyl)phenyl)-4-methyl-1H-indazol-1-yl)-3-methylbutyl)picolinamido)propanoic acid] | 0.06 µM |
| CC(C)CC(c1ccc(C(=O)NCCC(=O)O)nc1)n1cc2cc(-c3ccc(C(F)(F)F)cc3Cl)c(Cl)cc2n1 (stereo not drawn) [Compound #33, 3-[[5-[1-[6-Chloro-5-[2-chloro-4-(trifluoromethyl)phenyl]indazol-2-yl]-3-methyl-butyl]pyridine-2-carbonyl]amino]propanoic acid] | 0.07 µM |
| Cc1ccc2sc(-c3ccc4nn(C(CC(C)C)c5ccc(C(=O)NCCC(=O)O)cc5)cc4c3)cc2c1 (stereo not drawn) [compound 28] | 0.26 µM |
| COc1c(-c2ccc(C(F)(F)F)cc2Cl)ccc2c1cnn2C(CC(C)C)c1ccc(C(=O)NCCC(=O)O)cc1 (stereo not drawn) [Compound #103, 3-(4-(1-(5-(2-Chloro-4-(trifluoromethyl)phenyl)-4-methoxy-1H-indazol-1-yl)-3-methylbutyl)benzamido)propanoic acid] | 0.1 µM |
| Cc1cc2c(cnn2C(CC(C)C)c2ccc(C(=O)NCCC(=O)O)nc2)cc1-c1ccc(C(F)(F)F)cc1Cl (stereo not drawn) [Compound #259, 3-[[5-[1-[5-[2-Chloro-4-(trifluoromethyl)phenyl]-6-methyl-indazol-1-yl]-3-methyl-butyl]pridine-2-carbonyl]amino]propanoic acid] | 0.037 µM |
| Cc1cc(C(F)(F)F)ccc1-c1ccc2c(cnn2C(CC(C)C)c2ccc(C(=O)NCCC(=O)O)cc2)c1C (stereo not drawn) [Compound #21, 3-(4-(3-Methyl-1-(4-methyl-5-(2-methyl-4-(trifluoromethyl)phenyl)-1H-indazol-1-yl)butyl)benzamido)propanoic acid] | 0.092 µM |
| Cc1cc(C(F)(F)F)ccc1-c1cc2cn(C(CC(C)C)c3ccc(C(=O)NCCC(=O)O)nc3)nc2cc1Cl (stereo not drawn) [Compound #176, 3-[[5-[1-[6-Chloro-5-[2-methyl-4-(trifluoromethyl)phenyl]indazol-2-yl]-3-methyl-butyl]pyridine-2-carbonyl]amino]propanoic acid] | 0.05 µM |
| CC(C)CC(c1ccc(C(=O)NCCC(=O)O)cc1)n1ncc2cc(-c3ccc4ncccc4c3)ccc21 (stereo not drawn) [Compound #7] | 0.8 µM |
| O=C(O)CCNC(=O)c1ccc(C(CCC(F)(F)F)n2ncc3cc(-c4ccc(OC(F)(F)F)cc4)ccc32)cc1 (stereo not drawn) [Compound #76, 3-[[4-[4,4,4-Trifluoro-1-[5-[4-(trifluoromethoxy)phenyl]indazol-1-yl]butyl]benzoyl]amino]propanoic acid] | 0.7 µM |
| CC(C)CC(c1ccc(C(=O)NCCC(=O)O)cc1)n1ncc2cc(-c3ccc(C(F)(F)F)cc3Cl)ccc21 (stereo not drawn) [Compound #41, 3-(4-(1-(5-(2-Chloro-4-(trifluoromethyl)phenyl)-1H-indazol-1-yl)-3-methylbutyl)benzamido)propanoic acid] | 0.086 µM |
| CC(C)CC(c1ccc(C(=O)NCCC(=O)O)cc1)n1ncc2cc(-c3ccc(F)cc3)ccc21 (stereo not drawn) [Compound #5] | 0.6 µM |
| Cc1c(-c2ccc(C(C)(C)C)cc2)ccc2c1cnn2C(CC(C)C)c1ccc(C(=O)NCCC(=O)O)cc1 (stereo not drawn) [Compound #47, 3-(4-(1-(5-(4-(tert-Butyl)phenyl)-4-methyl-1H-indazol-1-yl)-3-methylbutyl)benzamido)propanoic acid] | 0.092 µM |
| CC(C)CC(c1ccc(C(=O)NCCC(=O)O)cc1)n1ncc2cc(-c3cccc4ccccc34)ccc21 (stereo not drawn) [compound 165] | 1.35 µM |
| CCCCCCC(c1ccc(C(=O)NCCC(=O)O)cc1)n1ncc2cc(-c3ccc(C(C)(C)C)cc3)ccc21 (stereo not drawn) [compound 128] | 0.199 µM |
| CC(C)CC(c1ccc(C(=O)NCCC(=O)O)cc1)n1ncc2cc(-c3ccc4cnn(C)c4c3)ccc21 (stereo not drawn) [compound 116] | 0.75 µM |
| CC(C)C[C@@H](c1ccc(C(=O)NCCC(=O)O)cc1)n1ncc2cc(-c3ccc(C(F)(F)F)cc3Cl)ccc21 [Compound #90, 3-[[4-[(1S)-1-[5-[2-Chloro-4-(trifluoromethyl)phenyl]indazol-1-yl]-3-methyl-butyl]benzoyl]amino]propanoic acid] | 0.085 µM |
| Cc1cc2nn(C(CC(C)C)c3ccc(C(=O)NCCC(=O)O)cc3)cc2cc1-c1ccc(C(F)(F)F)cc1 (stereo not drawn) [Compound #134, 3-[[4-[3-Methyl-1-[6-methyl-5-[4-(trifluoromethyl)phenyl]indazol-2-yl]butyl]benzoyl]amino]propanoic acid] | 0.195 µM |
| Cc1cc(C(F)(F)F)ccc1-c1ccc2nn(C(CC(C)C)c3ccc(C(=O)NCCC(=O)O)cc3)cc2c1C (stereo not drawn) [Compound #63, 3-(4-(3-Methyl-1-(4-methyl-5-(2-methyl-4-(trifluoromethyl)phenyl)-2H-indazol-2-yl)butyl)benzamido)propanoic acid] | 0.028 µM |
| COc1ccc2cc(-c3ccc4c(cnn4C(CC(C)C)c4ccc(C(=O)NCCC(=O)O)cc4)c3)ccc2c1 (stereo not drawn) [compound 222] | 0.8 µM |
| CC(C)CC(c1ccc(C(=O)NCCC(=O)O)cc1)n1ncc2cc(-c3cc4cc(F)ccc4s3)ccc21 (stereo not drawn) [compound 172] | 0.26 µM |
